Read-outs that look alike come from different tables or passages of the source.
Legend:
Type in all cases: in vivo
[1] = system: velvetleaf (Abutilon theophrasti); assay: Test A pre-/postemergence plant response; details: Abutilon theophrasti, 240 h, read-out: Plant response rating, Velvetleaf; for pest or weed control at 125 g/ha: 125 g ai/ha; for pest or weed control at 500 g/ha: 500 g ai/ha, approx. ten days
Procedure, shortened: (§1)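 Approximately ten days after concurrent pre- and postemergence spraying in a greenhouse, plants were compared with untreated controls and rated visually for injury, 0 = no effect to 100 = complete control. Preemergence spray was directed onto loam/sand soil; postemergence targeted 1–2 leaf seedlings.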

[2] = system: wheat (Triticum aestivum); assay: Test A pre-/postemergence plant response; details: Triticum aestivum, 240 h, read-out: Plant response rating, Wheat; for plant injury at 125 g/ha: 125 g ai/ha; for plant injury at 500 g/ha: 500 g ai/ha, approx. ten days
Procedure, shortened: as §1

[3] = system: large crabgrass (Digitaria sanguinalis); assay: Test A pre-/postemergence plant response; details: Digitaria sanguinalis, 240 h, read-out: Plant response rating, Crabgrass, Large; for pest or weed control at 125 g/ha: 125 g ai/ha; for pest or weed control at 500 g/ha: 500 g ai/ha, approx. ten days
Procedure, shortened: as §1

[4] = system: morningglory (Ipomoea spp.); assay: Test A pre-/postemergence plant response; details: Ipomoea, 240 h, read-out: Plant response rating, Morningglory; for pest or weed control at 125 g/ha: 125 g ai/ha; for pest or weed control at 500 g/ha: 500 g ai/ha, approx. ten days
Procedure, shortened: as §1

[5] = system: giant foxtail (Setaria faberii); assay: Test B pre-/postemergence plant response
Procedure, shortened: (§2)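 Test compounds, formulated in a non-phytotoxic solvent mixture with surfactant, are applied to the soil surface (loam and sand blend) right after seeding, or sprayed over plants at the 1- to 4-leaf stage grown in peat moss/vermiculite medium. After 13 to 15 days under glasshouse conditions, each species is scored visually from 0 (no effect) to 100 (complete control) against controls.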

[6] = system: wheat (Triticum aestivum); assay: Test B pre-/postemergence plant response
Procedure, shortened: as §2

[7] = system: pigweed (Amaranthus retroflexus); assay: Test B pre-/postemergence plant response
Procedure, shortened: as §2

[8] = system: downy bromegrass (Bromus tectorum); assay: Test B pre-/postemergence plant response
Procedure, shortened: as §2

[9] = system: goosegrass (Eleusine indica); assay: Test B pre-/postemergence plant response
Procedure, shortened: as §2

[10] = system: cocklebur (Xanthium strumarium); assay: Test B pre-/postemergence plant response
Procedure, shortened: as §2

[11] = system: kochia (Kochia scoparia); assay: Test B pre-/postemergence plant response
Procedure, shortened: as §2

[12] = system: green foxtail (Setaria viridis); assay: Test B pre-/postemergence plant response
Procedure, shortened: as §2

[13] = system: morningglory (Ipomoea coccinea); assay: Test B pre-/postemergence plant response
Procedure, shortened: as §2

[14] = post-emergence, Postemergence, 0 to 100 scale where 0 is no effect and 100 is complete control
[15] = post-emergence, Postemergence, 0 to 100 scale, 0 = no effect, 100 = complete control
[16] = pre-emergence, Preemergence, 0 to 100 scale, 0 = no effect, 100 = complete control
[17] = pre-emergence, Preemergence, visual injury, 0 to 100 scale (0 no effect, 100 complete control)
[18] = 62 g ai/ha, postemergence, 0 is no effect, 100 is complete control, 13 to 15 days

`COCCn1c(-c2ccsc2)ncc(C(=O)C2=C(O)CCCC2=O)c1=O` [Compound 97, 5-[(2-hydroxy-6-oxo-1-cyclohexen-1-yl)carbonyl]-3-(2-methoxyethyl)-2-(3-thienyl)-4(3H)-pyrimidinone] showed a pest or weed control at 125 g/ha [1, 14] of 100%, a pest or weed control at 500 g/ha [1, 15] of 100% and a pest or weed control at 125 g/ha [1, 16] of 100%. It also gave a pest or weed control at 500 g/ha [1, 17] of 100%, a plant injury at 125 g/ha [2, 14] of 0% and a plant injury at 500 g/ha [2, 15] of 20%. The plant injury at 125 g/ha [2, 16] was 0%, the plant injury at 500 g/ha [2, 17] was 0% and the pest or weed control at 125 g/ha [3, 14] was 80%. It also gave a pest or weed control at 500 g/ha [3, 15] of 100%, a pest or weed control at 125 g/ha [3, 16] of 100% and a pest or weed control at 500 g/ha [3, 17] of 100%. It also gave a pest or weed control at 125 g/ha [4, 14] of 100%, a pest or weed control at 500 g/ha [4, 15] of 100% and a pest or weed control at 125 g/ha [4, 16] of 70%. The pest or weed control at 500 g/ha [4, 17] was 80%, the “Foxtail, Giant plant response rating (0 to 100 scale)” value [5, 18] was 75 and the pest or weed control at 31 g/ha ([5]; Setaria faberi, post-emergence, 31 g ai/ha, postemergence, scale 0 to 100, 0 is no effect, 100 is complete control, read-out: Plant response rating, Foxtail, Giant) was 60%. The pest or weed control at 250 g/ha ([5]; Setaria faberi, post-emergence, Postemergence, 250 g ai/ha, scale 0 to 100 (0 no effect, 100 complete control), read-out: Plant response rating, Foxtail, Giant) was 90%, the “Wheat plant response rating (0 to 100 scale)” value [6, 18] was 0 and the plant injury at 31 g/ha ([6]; Triticum aestivum, post-emergence, 31 g ai/ha, postemergence, scale 0 to 100, 0 is no effect, 100 is complete control, read-out: Plant response rating, Wheat) was 0%. The plant injury at 250 g/ha ([6]; Triticum aestivum, post-emergence, Postemergence, 250 g ai/ha, scale 0 to 100 (0 no effect, 100 complete control), read-out: Plant response rating, Wheat) was 5%, the “Pigweed plant response rating (0 to 100 scale)” value [7, 18] was 100 and the pest or weed control at 31 g/ha ([7]; Amaranthus retroflexus, post-emergence, 31 g ai/ha, postemergence, scale 0 to 100, 0 is no effect, 100 is complete control, read-out: Plant response rating, Pigweed) was 95%. The pest or weed control at 250 g/ha ([7]; Amaranthus retroflexus, post-emergence, Postemergence, 250 g ai/ha, scale 0 to 100 (0 no effect, 100 complete control), read-out: Plant response rating, Pigweed) was 100%, the “Bromegrass, Downy plant response rating (0 to 100 scale)” value [8, 18] was 0 and the pest or weed control at 31 g/ha ([8]; Bromus tectorum, post-emergence, 31 g ai/ha, postemergence, scale 0 to 100, 0 is no effect, 100 is complete control, read-out: Plant response rating, Bromegrass, Downy) was 0%. For the same molecule, the pest or weed control at 125 g/ha ([8]; Bromus tectorum, post-emergence, Postemergence, 125 g ai/ha, visual rating after 13 to 15 days, scale 0 (no effect) to 100 (complete control)) was 5%, the pest or weed control at 250 g/ha ([8]; Bromus tectorum, post-emergence, Postemergence, 250 g ai/ha, scale 0 to 100 (0 no effect, 100 complete control), read-out: Plant response rating, Bromegrass, Downy) was 10% and the “Goosegrass plant response rating (0 to 100 scale)” value [9, 18] was 70. For the same molecule, the pest or weed control at 31 g/ha ([9]; Eleusine indica, post-emergence, 31 g ai/ha, postemergence, scale 0 to 100, 0 is no effect, 100 is complete control, read-out: Plant response rating, Goosegrass) was 60%, the pest or weed control at 250 g/ha ([9]; Eleusine indica, post-emergence, Postemergence, 250 g ai/ha, scale 0 to 100 (0 no effect, 100 complete control), read-out: Plant response rating, Goosegrass) was 98% and the “Cocklebur plant response rating (0 to 100 scale)” value [10, 18] was 100. For the same molecule, the pest or weed control at 31 g/ha ([10]; Xanthium strumarium, post-emergence, 31 g ai/ha, postemergence, scale 0 to 100, 0 is no effect, 100 is complete control, read-out: Plant response rating, Cocklebur) was 95%, the pest or weed control at 125 g/ha ([10]; Xanthium strumarium, post-emergence, Postemergence, 125 g ai/ha, visual rating after 13 to 15 days, scale 0 (no effect) to 100 (complete control)) was 100% and the pest or weed control at 250 g/ha ([10]; Xanthium strumarium, post-emergence, Postemergence, 250 g ai/ha, scale 0 to 100 (0 no effect, 100 complete control), read-out: Plant response rating, Cocklebur) was 100%. For the same molecule, the “Kochia plant response rating (0 to 100 scale)” value [11, 18] was 90, the pest or weed control at 31 g/ha ([11]; Bassia scoparia, post-emergence, 31 g ai/ha, postemergence, scale 0 to 100, 0 is no effect, 100 is complete control, read-out: Plant response rating, Kochia) was 65% and the pest or weed control at 250 g/ha ([11]; Bassia scoparia, post-emergence, Postemergence, 250 g ai/ha, scale 0 to 100 (0 no effect, 100 complete control), read-out: Plant response rating, Kochia) was 100%. For the same molecule, the “Foxtail, Green plant response rating (0 to 100 scale)” value [12, 18] was 85, the pest or weed control at 31 g/ha ([12]; Setaria viridis, post-emergence, 31 g ai/ha, postemergence, scale 0 to 100, 0 is no effect, 100 is complete control, read-out: Plant response rating, Foxtail, Green) was 40% and the pest or weed control at 250 g/ha ([12]; Setaria viridis, post-emergence, Postemergence, 250 g ai/ha, scale 0 to 100 (0 no effect, 100 complete control), read-out: Plant response rating, Foxtail, Green) was 95%. The “Morningglory plant response rating (0 to 100 scale)” value [13, 18] was 100, the pest or weed control at 31 g/ha ([13]; Ipomoea, post-emergence, 31 g ai/ha, postemergence, scale 0 to 100, 0 is no effect, 100 is complete control, read-out: Plant response rating, Morningglory) was 100% and the pest or weed control at 250 g/ha ([13]; Ipomoea, post-emergence, Postemergence, 250 g ai/ha, scale 0 to 100 (0 no effect, 100 complete control), read-out: Plant response rating, Morningglory) was 100%.
